According to patent US20240390396A1 (priority 2021, published 2024):
“And” between values parts separate entries of the source, which are not always exact repeats. Identical values can stand only once. Like-named read-outs stand apart in the source and are kept apart here.

Assays:
[1] = tested on: RAW 264.7 macrophages; assay: Nitric oxide (NO) secretion by LPS-activated macrophages (Griess reagent); type: cell-based; settings: for effect of ECS receptor antagonists alone on NO secretion: 24 h (FIG. 5B)
Procedure: NO secretion was determined by measuring the amount of nitrite, using a Griess reagent (Promega) according to manufacturer's protocol. Briefly, 50 μl of supernatant was added to 96-well plate, followed by 50 μl sulphanilamide and 50 μl N−1-napthylethylenediamine dihydrochloride (NED). The optical densities were quantified using a multi-well spectrophotometer, and nitrite concentrations were estimated using a standard nitrite curve. Results were calculated as the percentage of control cultures.
The poor bioavailability of CBD may hamper its effectiveness as an anti-inflammatory drug. To test whether antagonists of the ECS may potentiate the anti-inflammatory effect of CBD, the inventors used the RAW 264.7 macrophages as a model system for inflammation. Exposure of cells to bacterial lipopolysaccharide (LPS) initiates a signal transduction cascade that leads to increased production of nitrite oxide (NO), secretion of pro-inflammatory cytokines, and acquisition of enhanced bactericidal activity.
First, the inventors studied the response of LPS-activated RAW 264.7 cells to CBD. Cells were cultured with LPS, with/without CBD at 0.63-5 μM concentrations for 24 hrs. Supernatants were harvested for measuring NO by spectrophotometry using the Greiss reagent. […] To test whether antagonists of the ECS can modify the anti-inflammatory activity of CBD, the inventors further exposed the cells to LPS, CBD, ECS antagonists (detailed in Table 2), and their combinations. Two distinct CB2 antagonists (AM630 and COR170) were tested, as CB2 is known to be involved in the regulation of inflammation.

[2] = tested on: MDA-MB-231 cells; settings: 24 h
[3] = tested on: MCF7 cells; type: cell-based; settings: 24 h; cannabis containing 4 μM CBD; 32 μM capsazepine; 400 μM capsaicin; 5 μM thapsigargin; alone or combined
[4] = tested on: T47D cells; type: cell-based; settings: 24 h; cannabis containing 4 μM CBD; 32 μM capsazepine; 400 μM capsaicin; 5 μM thapsigargin; alone or combined
[5] = tested on: MDA-MB-468 cells; type: cell-based; settings: 24 h; 1:2 dilution of the original doses: cannabis containing 2 μM CBD; 16 μM capsazepine; capsaicin and thapsigargin diluted 1:2 from 400 μM and 5 μM; alone or combined
[6] = cannabis containing 4 μM CBD, 400 μM capsaicin, 5 μM thapsigargin, alone or combined

Row | Compound | NO secretion, dose response ([1]; 24 h, CBD 0.63-5 μM (FIG. 5A)) | activity at 2.5 µM ([1]; Mus musculus, RAW264.7, 24 h, 2.5 μM CBD, with or without 10 μM capsazepine, read-out: NO secretion, % of control cells treated with vehicle (DMSO)) [%] | cell survival ([2]; 2.5 μM pure CBD, with or without 32 μM capsazepine (FIG. 1D)) [%] | effect of ECS receptor antagonists alone on NO secretion [1] | cell survival [3] [%] | cell survival [4] [%] | cell survival [5] | cell survival [2, 6] [%] | effect of ECS receptor antagonist on cytotoxic activity of cannabis ([2]; co-treatment with CBD-enriched cannabis (FIG. 1B))
1 | C=C(C)[C@@H]1CCC(C)=C[C@H]1c1c(O)cc(CCCCC)cc1O [CBD, cannabidiol] | reduced NO secretion in a dose dependent manner | 6 ± 5 | 72±13 | – | – | – | – | – | –
2 | CCC(=O)NC[C@H](Cc1ccc(OCCc2nc(-c3ccccc3)oc2C)cc1)N/C(C)=C\C(=O)c1ccc(C(F)(F)F)cc1 [GW6471] | – | – | – | mild effect on NO secretion | – | – | – | – | –
3 | COc1cc(CNC(=O)CCCC/C=C/C(C)C)ccc1O [capsaicin] | – | – | – | – | 19±9 | 39±11 | 60±11% and 62±9% | 34±25 | –
4 | Oc1cc2c(cc1O)CN(C(=S)NCCc1ccc(Cl)cc1)CCC2 [capsazepine] | – | – | – | mild effect on NO secretion | 40±7 | 37±21 | 80±9% | – | enhanced the cytotoxic effect of cannabis
5 | C/C=C(/C)C(=O)O[C@H]1C(C)=C2[C@H]([C@@H]1OC(=O)CCCCCCC)[C@@](C)(OC(C)=O)C[C@H](OC(=O)CCC)[C@@]1(O)[C@H]2OC(=O)[C@@]1(C)O [thapsigargin] | – | – | – | – | 24±6 | 72±7 | – | 34±23 | –
